The test system of this test is plasma growth hormone. Briefly: Evaluation of peptides in vivo in sheep: plasma GH after IV injection of GRF analogs. Details: species or system wether lambs. The settings on record: lambs injected intravenously at 100 ng/kg; for Plasma GH (ng/ml) Post-inj Mean: two hours after treatment, means of 8 samples/animal from 8 animals. On the procedure:
The purpose of this experiment is to compare the GH releasing activities of several GRF analogs selected for expected high potency and the lack of either a terminal amide or a D-amino acid. The analogs to be compared in wether lambs at 100 ng/kg (IV) are tri-isopropyl-GRF(1-29)-NH₂, tri-isopropyl-GRF(1-29)-OH, tri-isopropyl-GRF(1-40)OH, D-ala², arg^12,21-GRF (1-29)-OH, D-ala², arg^12,21-GRF(1-29)-NH₂, GRF(1-40)-OH and GRF(1-29)-NH₂
A balanced 8 x 8 Latin square design will be used to test the following 8 treatments:
The diet used in these evaluations is a standard sheep diet (pelleted) and fresh water ad libitum. All animals are fed one daily.
The animals are individually identified by numbered ear tags and held in numbered metabolism cages.
Sheep are maintained in individual metabolism cages at all times. Each sheep has previously received an indwelling jugular cannula which is flushed daily with heparinized (400-800 IU/ml) sterile saline to help maintain patency.
All compounds are solubilized at 5 ug/ml in sterile saline containing 1% Tween 80 and injected intravenously at 100 ng/kg. Control lambs receive equal volumes of the vehicle only. The drugs are prepared each day just prior to injection to minimize sticking to the vials.
Blood is collected in heparinized tubes at 15 minute intervals for one hours prior to and for two hours after the treatments are administered. Plasma samples are removed by centrifugation and frozen.
Body weights of each animal is taken at the start of the experiment and once during treatment.
Blood samples are taken from each animal at 15 minute intervals for 3 hours each day during the 8 day trial period. The samples are analyzed for plasma growth hormone (ng/ml). Data obtained are reported below as near values obtained for each treatment.

`CC[C@H](C)[C@H](NC(=O)[C@H](C)NC(=O)[C@H](CC(=O)O)NC(=O)[C@H](C)NC(=O)[C@@H](N)Cc1ccc(O)cc1)C(=O)N[C@@H](Cc1ccccc1)C(=O)N[C@H](C(=O)N[C@@H](CC(N)=O)C(=O)N[C@@H](CO)C(=O)N[C@@H](Cc1ccc(O)cc1)C(=O)N[C@@H](CCCNC(=N)N)C(=O)N[C@@H](CCCCN)C(=O)N[C@H](C(=O)N[C@@H](CC(C)C)C(=O)NCC(=O)N[C@@H](CCC(N)=O)C(=O)N[C@@H](CC(C)C)C(=O)N[C@@H](CO)C(=O)N[C@@H](C)C(=O)N[C@@H](CCCNC(=N)N)C(=O)N[C@@H](CCCCN)C(=O)N[C@@H](CC(C)C)C(=O)N[C@@H](CC(C)C)C(=O)N[C@@H](CCC(N)=O)C(=O)N[C@@H](CC(=O)O)C(=O)N[C@H](C(=O)N[C@@H](CCSC)C(=O)N[C@@H](CO)C(=O)N[C@@H](CCCNC(=N)N)C(=O)N[C@@H](CCC(N)=O)C(=O)N[C@@H](CCC(N)=O)C(=O)NCC(=O)N[C@@H](CCC(=O)O)C(=O)N[C@@H](CO)C(=O)N[C@@H](CC(N)=O)C(=O)N[C@@H](CCC(N)=O)C(=O)N[C@@H](CCC(=O)O)C(=O)N[C@@H](CCCNC(=N)N)C(=O)NCC(=O)N[C@@H](C)C(=O)O)[C@@H](C)CC)C(C)C)[C@@H](C)O` [GRF(1-40)-OH]: the “Plasma GH (ng/ml) Peak” value was 92.3 ng/mL and the “Plasma GH (ng/ml) Post-inj Mean” value was found to be 25.5 ng/mL.

As to `CC[C@H](C)[C@H](NC(=O)[C@H](C)NC(=O)[C@H](CC(=O)O)NC(=O)[C@H](C)NC(=O)[C@H](Cc1ccc(O)cc1)NC(C)C)C(=O)N[C@@H](Cc1ccccc1)C(=O)N[C@H](C(=O)N[C@@H](CC(N)=O)C(=O)N[C@@H](CO)C(=O)N[C@@H](Cc1ccc(O)cc1)C(=O)N[C@@H](CCCNC(=N)N)C(=O)N[C@@H](CCCCNC(C)C)C(=O)N[C@H](C(=O)N[C@@H](CC(C)C)C(=O)NCC(=O)N[C@@H](CCC(N)=O)C(=O)N[C@@H](CC(C)C)C(=O)N[C@@H](CO)C(=O)N[C@@H](C)C(=O)N[C@@H](CCCNC(=N)N)C(=O)N[C@@H](CCCCNC(C)C)C(=O)N[C@@H](CC(C)C)C(=O)N[C@@H](CC(C)C)C(=O)N[C@@H](CCC(N)=O)C(=O)N[C@@H](CC(=O)O)C(=O)N[C@H](C(=O)N[C@@H](CCSC)C(=O)N[C@@H](CO)C(=O)N[C@@H](CCCNC(=N)N)C(=O)N[C@@H](CCC(N)=O)C(=O)N[C@@H](CCC(N)=O)C(=O)NCC(=O)N[C@@H](CCC(=O)O)C(=O)N[C@@H](CO)C(=O)N[C@@H](CC(N)=O)C(=O)N[C@@H](CCC(N)=O)C(=O)N[C@@H](CCC(=O)O)C(=O)N[C@@H](CCCNC(=N)N)C(=O)NCC(=O)N[C@@H](C)C(=O)O)[C@@H](C)CC)C(C)C)[C@@H](C)O` [tri-isopropyl-GRF(1-40)-OH, [N ^α-Isopropyl-Tyr¹, N ^ε-isopropyl-Lys^12,21]GRF(1-40)OH], the “Plasma GH (ng/ml) Peak” value was 108.6 ng/mL and the “Plasma GH (ng/ml) Post-inj Mean” value came to 34.0 ng/mL.

These data come from patent EP0314866A2, “Novel alkylated hormonereleasing peptides and method of treating mammals therewith” (The Administrators of The Tulane University Educational Fund, priority 1987, dated 1989).
